From US7704995B2 (Exelixis, Inc., priority 2003, dated 2010)
Where two headings read alike, the source gives them in different places.

Biological target: T1, Chk1 (Homo sapiens, UniProt O14757)
T1 construct: purchased Upstate Biotechnology
T1 sequence (O14757 1-476): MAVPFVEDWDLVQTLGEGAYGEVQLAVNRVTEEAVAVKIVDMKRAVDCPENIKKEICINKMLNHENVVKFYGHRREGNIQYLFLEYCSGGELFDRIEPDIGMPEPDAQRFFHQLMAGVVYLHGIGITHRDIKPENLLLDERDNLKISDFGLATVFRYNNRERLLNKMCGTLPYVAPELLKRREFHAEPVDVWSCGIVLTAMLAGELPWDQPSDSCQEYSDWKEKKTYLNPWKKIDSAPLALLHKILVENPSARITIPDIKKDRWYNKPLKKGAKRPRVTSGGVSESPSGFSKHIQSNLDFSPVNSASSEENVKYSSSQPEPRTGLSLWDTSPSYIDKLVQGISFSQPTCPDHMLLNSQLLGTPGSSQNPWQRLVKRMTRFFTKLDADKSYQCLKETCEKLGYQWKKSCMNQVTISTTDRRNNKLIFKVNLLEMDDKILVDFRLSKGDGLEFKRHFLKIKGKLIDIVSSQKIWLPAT
Assay: Chk1 kinase assay: incorporation of γ-33P ATP into immobilized myelin basic protein
Format: biochemical
Conditions: read-out: Chk1 IC50
How it was run: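 Read-out is scintillation counting of 33P incorporated into plate-bound myelin basic protein. Chk1 runs at 10 nM enzyme with 10 μM ATP, Chk2 at 20 nM with 30 μM ATP, each for 1 hour at room temperature. Duplicate points; IC50 taken as 50% activity reduction, Ki computed from IC50.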

[1] = Table 11, Chk1 only, class symbols A-D

| SMILES | IC50 [1] | IC50 (Table 11, Chk1 only) | IC50 |
| --- | --- | --- | --- |
| Nc1ncc(-c2cccc(CN[C@H]3CCc4ccccc43)c2)nc1C(=O)NC1CN2CCC1CC2 (stereo partly drawn) [Example 819, 3-amino-N-1-azabicyclo[2.2.2]oct-3-yl-6-(3-{[(1S)-2,3-dihydro-1H-inden-1-ylamino]methyl}phenyl)pyrazine-2-carboxamide] | 50 to 1000 nM | – | – |
| Nc1ncc(-c2cccc(CNC(=O)c3ccc(Cl)cc3)c2)nc1-c1nc([C@H]2CCCNC2)n[nH]1 [Example 941, N-{[3-(5-amino-6-{3-[(3S)-piperidin-3-yl]-1H-1,2,4-triazol-5-yl}pyrazin-2-yl)phenyl]methyl}-4-chlorobenzamide] | < 50 nM | – | – |
| CNC(=O)c1nc(-c2cccc(CNC3CCCC3)c2)cnc1N [Example 500, 3-amino-6-{3-[(cyclopentylamino)methyl]phenyl}-N-methylpyrazine-2-carboxamide] | – | 50 to 1000 nM | – |
| CNC(=O)c1nc(-c2cccc(NC(=O)O[C@@H]3C[C@H](C)CC[C@H]3C(C)C)c2)cnc1N [Example 322, (1R,2S,5R)-5-methyl-2-(1-methylethyl)cyclohexyl (3-{5-amino-6-[(methylamino)carbonyl]pyrazin-2-yl}phenyl)carbamate] | – | – | ≥ 10000 nM |
| CNC(=O)c1nc(-c2cccc(C(=O)NCCc3cccs3)c2)cnc1N [Example 132, 3-amino-N-methyl-6-[3-({[2-(2-thienyl)ethyl]amino}carbonyl)phenyl]pyrazine-2-carboxamide] | – | – | 50 to 1000 nM |
| CNC(=O)c1nc(-c2cccc(C(=O)NCc3cccc(O)c3)c2)cnc1N [Example 326, 3-amino-6-[3-({[(3-hydroxyphenyl)methyl]amino}carbonyl)phenyl]-N-methylpyrazine-2-carboxamide] | – | – | 50 to 1000 nM |
| CNC(=O)c1nc(-c2ccc(C(=O)OCc3ccccc3)cc2)cnc1N [Example 149, phenylmethyl 4-{5-amino-6-[(methylamino)carbonyl]pyrazin-2-yl}benzoate] | – | – | ≥ 10000 nM |
| Nc1ncc(-c2cccc(C(=O)N[C@@H]3c4ccccc4C[C@@H]3O)c2)nc1C(=O)NC1CCCNCC1 (stereo partly drawn) [Example 782, 3-amino-N-azepan-4-yl-6-[3-({[(1R,2S)-2-hydroxy-2,3-dihydro-1H-inden-1-yl]amino}carbonyl)phenyl]pyrazine-2-carboxamide] | – | < 50 nM | – |
| CNC(=O)c1nc(-c2cccc(C(=O)NCC3CN(Cc4ccccc4)CCO3)c2)cnc1N (stereo not shown) [Example 204, 3-amino-N-methyl-6-{3-[({[4-(phenylmethyl)morpholin-2-yl]methyl}amino)carbonyl]phenyl}pyrazine-2-carboxamide] | – | – | 50 to 1000 nM |
| CC(C)(C)OC(=O)N1CC[C@H](NC(=O)c2nc(-c3cccc(C(=O)NCc4ccc(OC(F)(F)F)cc4)c3)cnc2N)C1 [Example 739, 1,1-dimethylethyl (3S)-3-({[3-amino-6-(3-{[({4-[(trifluoromethyl)oxy]phenyl}methyl)amino]carbonyl}phenyl)pyrazin-2-yl]carbonyl}amino)pyrrolidine-1-carboxylate] | – | 50 to 1000 nM | – |
| Nc1ncc(-c2cccc(C(=O)NCc3cc(F)cc(F)c3F)c2)nc1C(=O)N[C@H]1CCNC1 [Example 816, 3-amino-N-[(3S)-pyrrolidin-3-yl]-6-[3-({[(2,3,5-trifluorophenyl)methyl]amino}carbonyl)phenyl]pyrazine-2-carboxamide] | 50 to 1000 nM | – | – |
| Nc1ncc(-c2cccc(CN[C@@H]3CCc4ccccc43)c2)nc1-c1nc(C2CCCNC2)n[nH]1 (stereo partly drawn) [Example 683, 5-(3-{[(1R)-2,3-dihydro-1H-inden-1-ylamino]methyl}phenyl)-3-(3-piperidin-3-yl-1H-1,2,4-triazol-5-yl)pyrazin-2-amine] | – | < 50 nM | – |
| Nc1ncc(-c2cccc(C(=O)NCc3ccccc3)c2)nc1C(=O)N1CCN(Cc2ccccc2)CC1 [Example 575, 3-(5-amino-6-{[4-(phenylmethyl)piperazin-1-yl]carbonyl}pyrazin-2-yl)-N-(phenylmethyl)benzamide] | – | ≥ 10000 nM | – |
| Cc1ccc(F)c(CNC(=O)c2cccc(-c3cnc(N)c(C(=O)N[C@H]4CCCNC4)n3)c2)c1Cl [Example 1013, 3-amino-6-[3-({[(2-chloro-6-fluoro-3-methylphenyl)methyl]amino}carbonyl)phenyl]-N-[(3S)-piperidin-3-yl]pyrazine-2-carboxamide] | < 50 nM | – | – |
| CNC(=O)c1nc(-c2cccc(C(=O)NCc3ccc(S(C)(=O)=O)cc3)c2)cnc1N [Example 255, 3-amino-N-methyl-6-{3-[({[4-(methylsulfonyl)phenyl]methyl}amino)carbonyl]phenyl}pyrazine-2-carboxamide] | – | – | 50 to 1000 nM |
| CNC(=O)c1nc(-c2cccc(NC(=O)C(c3ccccc3)c3ccccc3)c2)cnc1N [Example 157, 3-amino-6-{3-[(diphenylacetyl)amino]phenyl}-N-methylpyrazine-2-carboxamide] | – | – | 50 to 1000 nM |
| Nc1ncc(-c2cccc(CNC(=O)Nc3ccc(-c4ccccc4)cc3)c2)nc1C(=O)N[C@H]1CCCNC1 [Example 908, 3-amino-6-[3-({[(biphenyl-4-ylamino)carbonyl]amino}methyl)phenyl]-N-[(3S)-piperidin-3-yl]pyrazine-2-carboxamide] | < 50 nM | – | – |
| Nc1ncc(-c2cccc(C(=O)NCc3cccc(Cl)c3)c2)nc1-c1nnc([C@H]2CCCNC2)[nH]1 [Example 837, 3-(5-amino-6-{5-[(3S)-piperidin-3-yl]-4H-1,2,4-triazol-3-yl}pyrazin-2-yl)-N-[(3-chlorophenyl)methyl]benzamide] | < 50 nM | – | – |
| CNC(=O)c1nc(-c2cccc(C(=O)NNc3cc(F)ccc3F)c2)cnc1N [Example 430, 3-amino-6-(3-{[2-(2,5-difluorophenyl)hydrazino]carbonyl}phenyl)-N-methylpyrazine-2-carboxamide] | – | 50 to 1000 nM | – |
| CNC(=O)c1nc(-c2cccc(C(=O)N[C@@H]3CCN(Cc4ccc(Cl)cc4)C3)c2)cnc1NCc1ccc(Cl)cc1 [Example 359, 3-{[(4-chlorophenyl)methyl]amino}-6-{3-[({(3R)-1-[(4-chlorophenyl)methyl]pyrrolidin-3-yl}amino)carbonyl]phenyl}-N-methylpyrazine-2-carboxamide] | – | – | 50 to 1000 nM |

Second part, the compound after the results:

| IC50 [1] | IC50 (Table 11, Chk1 only) | IC50 | SMILES |
| --- | --- | --- | --- |
| – | 50 to 1000 nM | – | CNC(=O)c1nc(-c2cccc(CNC3Cc4c(F)cccc4C3O)c2)cnc1N (stereo not shown) [Example 467, 3-amino-6-(3-{[(4-fluoro-1-hydroxy-2,3-dihydro-1H-inden-2-yl)amino]methyl}phenyl)-N-methylpyrazine-2-carboxamide] |
| < 50 nM | – | – | Nc1ncc(-c2cccc(C(=O)NCc3c(F)cccc3F)c2)nc1C(=O)N[C@H]1CCCNC1 [Example 1010, 3-amino-6-[3-({[(2,6-difluorophenyl)methyl]amino}carbonyl)phenyl]-N-[(3S)-piperidin-3-yl]pyrazine-2-carboxamide] |
| < 50 nM | – | – | Nc1ncc(-c2cccc(C(=O)NCc3ccc4c(c3)OCCO4)c2)nc1C(=O)N[C@H]1CCCNC1 [Example 860, 3-amino-6-(3-{[(2,3-dihydro-1,4-benzodioxin-6-ylmethyl)amino]carbonyl}phenyl)-N-[(3S)-piperidin-3-yl]pyrazine-2-carboxamide] |
| – | – | 50 to 1000 nM | CNC(=O)c1nc(-c2cccc(C(=O)NCc3ccccc3C)c2)cnc1N [Example 285, 3-amino-N-methyl-6-[3-({[(2-methylphenyl)methyl]amino}carbonyl)phenyl]pyrazine-2-carboxamide] |
| – | 50 to 1000 nM | – | Nc1ncc(-c2cccc(CO)c2)nc1-c1nnc(-c2ccco2)[nH]1 [Example 570, {3-[5-amino-6-(5-furan-2-yl-4H-1,2,4-triazol-3-yl)pyrazin-2-yl]phenyl}methanol] |
| – | 50 to 1000 nM | – | C[C@H](NC(=O)c1cccc(-c2cnc(N)c(C(=O)N[C@H]3CCNC3)n2)c1)c1ccccc1 [Example 717, 3-amino-6-[3-({[(1S)-1-phenylethyl]amino}carbonyl)phenyl]-N-[(3S)-pyrrolidin-3-yl]pyrazine-2-carboxamide] |
| – | ≥ 10000 nM | – | Nc1ncc(-c2cccc(C(=O)NCc3ccccc3)c2)nc1C(=O)N1CCNCC1 [Example 593, 3-[5-amino-6-(piperazin-1-ylcarbonyl)pyrazin-2-yl]-N-(phenylmethyl)benzamide] |
| – | – | 50 to 1000 nM | CNC(=O)c1nc(-c2cccc(C(=O)NCCc3ccccc3OC)c2)cnc1N [Example 130, 3-amino-N-methyl-6-{3-[({2-[2-(methyloxy)phenyl]ethyl}amino)carbonyl]phenyl}pyrazine-2-carboxamide] |
| – | – | 50 to 1000 nM | CNC(=O)c1nc(-c2cncc(C(=O)NCc3ccc4c(c3)OCCO4)c2)cnc1N [Example 411, 3-amino-6-(5-{[(2,3-dihydro-1,4-benzodioxin-6-ylmethyl)amino]carbonyl}pyridin-3-yl)-N-methylpyrazine-2-carboxamide] |
| < 50 nM | – | – | COc1ccccc1CNC(=O)c1cccc(-c2cnc(N)c(C(=O)N[C@H]3CCCNC3)n2)c1 [Example 855, 3-amino-6-{3-[({[2-(methyloxy)phenyl]methyl}amino)carbonyl]phenyl}-N-[(3S)-piperidin-3-yl]pyrazine-2-carboxamide] |
| 50 to 1000 nM | – | – | Nc1ncc(-c2cccc(S(=O)(=O)N[C@@H]3CCc4ccccc43)c2)nc1C(=O)N[C@H]1CCNC1 [Example 812, 3-amino-6-(3-{[(1R)-2,3-dihydro-1H-inden-1-ylamino]sulfonyl}phenyl)-N-[(3S)-pyrrolidin-3-yl]pyrazine-2-carboxamide] |
